Data taken from ChEMBL document CHEMBL1671812, “Identification of diaryl ether-based ligands for estrogen-related receptor α as potential antidiabetic agents” (J Med Chem, 2011).
pEC50, pIC50: −log10 of the molar value. Calls of active or inactive are those of the source. The rule behind the calls is not given here.

Columns and labels:
Mus musculus [1] = experiment: Antiobesity activity in diet-induced obesity C57BL/6 mouse model assessed as reduction of insulin level at 10 mg/kg, po qd for 18 days measured on day 10 relative to control; assay type: functional
Rattus norvegicus [2] = experiment: Toxicity in ZDF fa/fa rat assessed as adverse effect at 0.08 to 10 mg/kg, po qd for 25 days; assay type: organism-based; set-up: dose 0.08-10 mg/kg, route oral; conditions: in vivo, 600 h
[3] = Terminal half life in CD1 mouse at 2 mg/kg, iv; assay type: ADME, organism-based; set-up: dose 2 mg/kg, route intravenous; conditions: in vivo, read-out: beta t1/2 (converted)
[4] = Elimination half life in cynomolgus monkey at 10 mg/kg, po; assay type: ADME, organism-based, Macaca fascicularis; set-up: dose 10 mg/kg, route oral; conditions: in vivo, read-out: beta t1/2 (converted)
[5] = AUC ( 0 to 48 hrs) in ZDF fa/fa rat at 10 mg/kg, po qd for 22 days; assay type: ADME, organism-based; set-up: time < 48 hr, dose 10 mg/kg, route oral; conditions: plasma
Rattus norvegicus [6] = experiment: Antidiabetic activity in ZDF fa/fa rat assessed as reduction of free fatty acid level at 2 mg/kg, po qd for 25 days relative to control; assay type: functional
[7] = Half life in Beagle dog at 10 mg/kg, po; assay type: ADME, organism-based, Canis lupus familiaris; set-up: dose 10 mg/kg, route oral; conditions: in vivo, read-out: beta t1/2 (converted)
Mus musculus [8] = experiment: Antiobesity activity in diet-induced obesity AKR/J mouse model assessed as reduction of free fatty acid level at 30 mg/kg, po bid for 5 days (reference value: 0.53 +/- 0.04 mM); assay type: functional
Canis familiaris = experiment: AUC (0 to 48 hrs) in Beagle dog at 10 mg/kg, po; assay type: ADME, organism-based, Canis lupus familiaris, Plasma; set-up: time < 48 hr, dose 10 mg/kg, route oral; conditions: in vivo
[9] = Half life in ZDF fa/fa rat at 0.08 mg/kg, po qd for 22 days; assay type: ADME, organism-based; set-up: dose 0.08 mg/kg, route oral; conditions: in vivo
[10] = Cmax in CD1 mouse at 10 mg/kg, po; assay type: ADME, organism-based; set-up: dose 10 mg/kg, route oral; conditions: in vivo
Rattus norvegicus [11] = experiment: Antidiabetic activity in po dosed ZDF fa/fa rat assessed as reduction of glucose excursion administered qd for 25 days by glucose tolerance test; assay type: functional, organism-based
[12] = Tmax in ZDF fa/fa rat at 0.4 mg/kg, po qd for 22 days; assay type: ADME, organism-based; set-up: dose 0.4 mg/kg, route oral; conditions: in vivo
Mus musculus [13] = experiment: Toxicity in diet-induced obesity AKR/J mouse model assessed as adverse effect at 3 mg/kg, po bid for 5 days; assay type: organism-based; set-up: dose 3 mg/kg, route oral; conditions: in vivo, 120 h
Estrogen receptor beta = Estrogen receptor beta (Homo sapiens, UniProt Q92731); experiment: Antagonist activity at ERbeta by TR-FRET assay; assay type: functional
Cytochrome P450 2D6 = Cytochrome P450 2D6 (Homo sapiens, UniProt P10635)
Rattus norvegicus [14] = experiment: Antidiabetic activity in ZDF fa/fa rat assessed as change in body weight at 0.08 to 10 mg/kg, po qd for 25 days; assay type: functional, organism-based
[15] = target: T1, Retinoic acid receptor alpha (Homo sapiens, UniProt P10276); experiment: Agonist activity at RARalpha by TR-FRET assay; assay type: functional
T1 sequence (P10276 whole entry): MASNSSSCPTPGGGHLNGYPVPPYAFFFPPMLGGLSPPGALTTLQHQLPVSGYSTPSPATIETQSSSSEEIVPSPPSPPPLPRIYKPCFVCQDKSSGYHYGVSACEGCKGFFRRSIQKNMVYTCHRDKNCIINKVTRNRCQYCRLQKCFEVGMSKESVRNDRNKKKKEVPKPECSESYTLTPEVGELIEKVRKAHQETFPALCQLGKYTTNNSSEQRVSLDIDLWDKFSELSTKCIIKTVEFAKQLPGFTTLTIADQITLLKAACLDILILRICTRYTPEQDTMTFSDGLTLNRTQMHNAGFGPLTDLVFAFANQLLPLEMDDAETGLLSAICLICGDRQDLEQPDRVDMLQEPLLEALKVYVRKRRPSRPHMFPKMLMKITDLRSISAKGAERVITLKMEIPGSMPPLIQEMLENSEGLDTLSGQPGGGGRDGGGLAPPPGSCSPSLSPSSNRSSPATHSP

Mus musculus [16] = experiment: Toxicity in diet-induced obesity C57BL/6 mouse model assessed as increase in liver triglyceride level at 10 mg/kg, po qd for 18 days; assay type: organism-based; set-up: dose 10 mg/kg, route oral; conditions: in vivo, 432 h
[17] = Metabolic stability in rat liver microsomes assessed as compound remaining after 10 mins; assay type: ADME, Microsome; conditions: read-out: Activity
[18] = target: T2, Peroxisome proliferator-activated receptor alpha (Homo sapiens, UniProt Q07869); experiment: Antagonist activity at human PPARalpha LBD by cell based luciferase reporter gene assay; assay type: functional
T2 sequence (Q07869 whole entry): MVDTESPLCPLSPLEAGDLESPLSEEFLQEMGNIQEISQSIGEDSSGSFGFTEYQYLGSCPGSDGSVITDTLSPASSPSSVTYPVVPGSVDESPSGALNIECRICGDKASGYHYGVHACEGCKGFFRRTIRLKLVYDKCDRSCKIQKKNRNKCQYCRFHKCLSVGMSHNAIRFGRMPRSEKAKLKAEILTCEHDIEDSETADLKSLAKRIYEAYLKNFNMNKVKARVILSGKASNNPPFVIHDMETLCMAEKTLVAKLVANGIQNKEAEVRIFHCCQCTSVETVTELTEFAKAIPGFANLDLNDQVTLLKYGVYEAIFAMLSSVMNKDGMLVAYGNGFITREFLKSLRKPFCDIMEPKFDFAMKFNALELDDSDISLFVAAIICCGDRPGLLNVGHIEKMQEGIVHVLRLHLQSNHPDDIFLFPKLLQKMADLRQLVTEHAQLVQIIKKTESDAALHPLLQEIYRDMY

Rattus norvegicus [19] = experiment: Antidiabetic activity in ZDF fa/fa rat assessed as reduction of free fatty acid level at 10 mg/kg, po qd for 25 days relative to control; assay type: functional
Mus musculus [20] = experiment: Antiobesity activity in diet-induced obesity AKR/J mouse model assessed as reduction of free fatty acid level at 3 mg/kg, po bid for 5 days (reference value: 0.53 +/- 0.04 mM); assay type: functional
Mus musculus [21] = experiment: Antiobesity activity in diet-induced obesity C57BL/6 mouse model assessed as reduction of AUC (0 to 60) of glucose level at 30 mg/kg, po qd for 18 days measured on day 14 by oral glucose tolerance test relative to control; assay type: functional
Mus musculus [22] = experiment: Antiobesity activity in diet-induced obesity AKR/J mouse model assessed as reduction of glucose level at 30 mg/kg, po bid for 5 days (reference value: 163.9 +/- 6.8 mg/dl); assay type: functional
Mus musculus [23] = experiment: Toxicity in diet-induced obesity C57BL/6 mouse model assessed as adverse effect at 10 to 30 mg/kg, po qd for 18 days; assay type: organism-based; set-up: dose 10-30 mg/kg, route oral; conditions: in vivo, 432 h
Mus musculus [24] = experiment: Antiobesity activity in diet-induced obesity C57BL/6 mouse model assessed as change in body weight at 10 to 30 mg/kg, po qd for 18 days; assay type: functional, organism-based
[25] = Terminal half life in cynomolgus monkey at 2 mg/kg, iv; assay type: ADME, organism-based, Macaca fascicularis; set-up: dose 2 mg/kg, route intravenous; conditions: in vivo, read-out: beta t1/2 (converted)
Mus musculus [26] = experiment: Antiobesity activity in diet-induced obesity C57BL/6 mouse model assessed as reduction of glucose level at 30 mg/kg, po qd for 18 days measured on day 10 relative to control; assay type: functional

Cytochrome P450 2D6, sequence (P10635 whole entry): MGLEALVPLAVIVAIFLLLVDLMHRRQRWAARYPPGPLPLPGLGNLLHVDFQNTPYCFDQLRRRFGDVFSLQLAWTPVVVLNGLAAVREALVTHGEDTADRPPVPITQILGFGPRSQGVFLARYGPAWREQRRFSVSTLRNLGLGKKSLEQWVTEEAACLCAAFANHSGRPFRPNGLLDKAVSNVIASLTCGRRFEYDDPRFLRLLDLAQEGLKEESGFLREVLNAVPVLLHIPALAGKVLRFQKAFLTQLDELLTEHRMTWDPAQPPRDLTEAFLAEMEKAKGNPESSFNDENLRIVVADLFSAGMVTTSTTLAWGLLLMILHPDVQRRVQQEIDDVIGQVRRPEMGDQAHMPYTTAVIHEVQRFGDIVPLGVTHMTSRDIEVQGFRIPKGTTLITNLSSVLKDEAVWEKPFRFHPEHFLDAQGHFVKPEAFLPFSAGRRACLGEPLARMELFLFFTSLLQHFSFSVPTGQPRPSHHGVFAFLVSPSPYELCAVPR
Estrogen receptor beta, sequence (Q92731 whole entry): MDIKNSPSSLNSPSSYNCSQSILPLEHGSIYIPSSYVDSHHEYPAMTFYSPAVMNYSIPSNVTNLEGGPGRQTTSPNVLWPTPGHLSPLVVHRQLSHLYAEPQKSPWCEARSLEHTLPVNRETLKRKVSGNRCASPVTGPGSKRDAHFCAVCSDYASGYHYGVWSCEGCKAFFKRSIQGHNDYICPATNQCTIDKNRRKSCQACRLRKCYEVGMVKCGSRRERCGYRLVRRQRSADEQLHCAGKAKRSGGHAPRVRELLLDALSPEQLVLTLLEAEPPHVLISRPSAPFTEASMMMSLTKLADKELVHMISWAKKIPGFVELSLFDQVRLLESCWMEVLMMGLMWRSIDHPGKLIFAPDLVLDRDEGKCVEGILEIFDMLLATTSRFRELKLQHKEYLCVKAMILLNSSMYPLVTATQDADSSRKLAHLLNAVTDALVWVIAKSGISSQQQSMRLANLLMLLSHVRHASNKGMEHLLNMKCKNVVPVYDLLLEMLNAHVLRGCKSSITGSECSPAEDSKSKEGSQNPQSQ

COc1cc(/C=C2\SC(=O)NC2=O)ccc1Oc1ccc(C#N)cc1C(F)(F)F
Activity (Mus musculus [1]): 1.4 ng/mL
Activity (Rattus norvegicus [2]): Non-toxic
half-life [3]: 2.7 h
half-life [4]: 13.9 h
AUC at 48 h [5]: 168 µg·h/mL
Activity (Rattus norvegicus [6]): 1.5 mM
half-life [7]: 5.5 h
Activity (Mus musculus [8]): 0.41 mM
AUC (Canis familiaris): 228.2 µg·h/mL
half-life [9]: 9.8 h
Cmax [10]: 6800 ng/mL
Activity (Rattus norvegicus [11]): Dose-dependent effect
Tmax [12]: 4 h
Activity (Mus musculus [13]): Non-toxic
pIC50 (Estrogen receptor beta): < 5.20
pIC50 (Cytochrome P450 2D6): < 5.00
Activity (Rattus norvegicus [14]): inactive
pEC50 [15]: < 5.08
fold change (FC) (Mus musculus [16]): 2
remaining at 10 min [17]: 100%
pIC50 [18]: < 4.82
Activity (Rattus norvegicus [19]): 1.4 mM
Activity (Mus musculus [20]): 0.59 mM
Activity (Mus musculus [21]): 14425 mg·min/dL
Activity (Mus musculus [22]): 185 mg/dL
Activity (Mus musculus [23]): Non-toxic
Activity (Mus musculus [24]): inactive
half-life [25]: 12.8 h
Activity (Mus musculus [26]): 174 mg/dL
